Laboratory results published in patent US11970502B2, “Macrocyclic antiviral agents” (Enanta Pharmaceuticals, Inc., priority 2021, dated 2024).
Read-outs that look alike come from different tables or passages of the source.

What was measured:
[1] = test system: 229E human corona virus (hCoV); assay: 229E Cellular Assay (MRC5), 229E live virus assay, ATPlite readout; format: cell-based, hCoV-229E
SARS-CoV-2 3CL-protease = SARS-CoV-2 3CL-protease (Severe acute respiratory syndrome coronavirus 2, UniProt P0DTD1); assay: biochemical
[2] = Human coronavirus 229E, MRC5, 144 h; read-out: EC50 (229E)
[3] = recombinant 3CL-protease 10 nM, substrate 40 μM, 30 min preincubation at RT, read-out: FRET IC50

SMILES	EC50 ([1]; Human coronavirus 229E, MRC5, 144 h, read-out: EC50 (229E)) [nM]	IC50 (SARS-CoV-2 3CL-protease) [nM]	EC50 [1, 2] [nM]	IC50 (SARS-CoV-2 3CL-protease; [3]) [nM]	EC50 ([1]; Human coronavirus 229E, MRC5, 144 h; MRC-5 cells, hCoV-229E MOI 0.05, 6 days at 34° C., ATPlite; read-out: EC50 (229E)) [nM]
CC(C)C[C@H]1C(=O)N[C@H](C#N)C[C@@H]2C[C@@H](C/C=C/C[C@H](NC(=O)OC(C)(C)C)C(=O)N1C)NC2=O [Example 1]	> 1000	100 to 1000			
CC(C)C[C@H]1C(=O)N[C@H](C#N)C[C@@H]2C[C@@H](CCCC[C@H](NC(=O)c3cc4c(F)cc(F)c(F)c4[nH]3)C(=O)N1C)NC2=O [Example 5]			> 1000	100 to 1000	
CC(C)C[C@H]1C(=O)N[C@H](C#N)C[C@@H]2C[C@@H](CCCC[C@H](NC(=O)OC(C)(C)C)C(=O)N1C)NC2=O [Example 2]				< 100	> 1000
CC(C)C[C@H]1C(=O)N[C@H](C#N)C[C@@H]2C[C@@H](CCCCc3nc(-c4ccccc4Cl)oc3N1C)NC2=O [Example 6]			100 to 1000	100 to 1000	
CC(C)C[C@H]1C(=O)N[C@H](C#N)C[C@@H]2C[C@@H](CCCC[C@H](NC(=O)c3ccccc3Cl)C(=O)N1C)NC2=O [Example 3]			100 to 1000	< 100	
CC(C)C[C@H]1C(=O)N[C@H](C#N)C[C@@H]2C[C@@H](CCCC[C@H](NC(=O)c3ccccn3)C(=O)N1C)NC2=O [Example 4]			> 1000	< 100	
